Test results: article PMC11157767 (Molecular Cancer, 2024)

Test system: TFG-MET allograft tumors
Test: RNA-sequencing, differential expression and GSEA of TFG-MET allograft tumors
Format: in vivo, mouse
Conditions: GSEA CAP vs Veh, C5 GO CC
Description: Error bars display standard error of mean, statistical significance was determined using t-test analysis. (****;p<0.0001, ***;p<0.001, **;p<0.01, *;p<0.05). […] Each dot represents an individual replicate. Error bars display standard error of the mean.
Each dot represents one gene.

SMILES: CNC(=O)c1ccc(-c2cnc3ncc(Cc4ccc5ncccc5c4)n3n2)cc1F [Capmatinib]
- NES GOCC_U12_TYPE_SPLICEOSOMAL_COMPLEX (padj 0.00985351): -1.841
- NES GOCC_ENDOCYTIC_VESICLE_MEMBRANE (padj 0.00993117): 1.48
- NES GOCC_MAIN_AXON (padj 0.0105942): 1.71
- NES GOCC_CILIARY_TIP (padj 0.0106966): 1.78
- NES GOCC_CILIARY_BASAL_BODY (padj 0.0123456): 1.449
- NES GOCC_RNA_POLYMERASE_III_COMPLEX (padj 0.0128749): -1.798
- NES GOCC_CATION_CHANNEL_COMPLEX (padj 0.0130428): 1.45
- NES GOCC_PROTON_TRANSPORTING_TWO_SECTOR_ATPASE_COMPLEX_CATALYTIC_DOMAIN (padj 0.0138609): 1.892
- NES GOCC_SPECIFIC_GRANULE_MEMBRANE (padj 0.0141171): 1.543
- NES GOCC_SWI_SNF_SUPERFAMILY_TYPE_COMPLEX (padj 0.0141171): -1.631
- NES GOCC_U1_SNRNP (padj 0.015809): -1.765
- NES GOCC_MICROBODY (padj 0.0162979): 1.4892
- NES GOCC_CHAPERONE_COMPLEX (padj 0.0163882): -1.777
- NES GOCC_SPINDLE (padj 0.0181265): -1.395
- NES GOCC_AUTOPHAGOSOME_MEMBRANE (padj 0.0181579): 1.734
- NES GOCC_DNA_POLYMERASE_COMPLEX (padj 0.0181579): -1.786
- NES GOCC_P_BODY (padj 0.0181579): -1.619
- NES GOCC_MHC_CLASS_I_PROTEIN_COMPLEX (padj 0.0188701): 1.849
- NES GOCC_AZUROPHIL_GRANULE_MEMBRANE (padj 0.0193916): 1.659
- NES GOCC_EXOCYTIC_VESICLE (padj 0.0193916): 1.3878
- NES GOCC_EXON_EXON_JUNCTION_COMPLEX (padj 0.0194501): -1.776
- NES GOCC_SPLICEOSOMAL_TRI_SNRNP_COMPLEX (padj 0.0201459): -1.73
- NES GOCC_PLASMA_MEMBRANE_PROTEIN_COMPLEX (padj 0.0211865): 1.208
- NES GOCC_SPINDLE_POLE (padj 0.0236958): -1.485
- NES GOCC_CYTOPLASMIC_REGION (padj 0.0239917): 1.358
- NES GOCC_RIBOSOME (padj 0.0240328): -1.42
- NES GOCC_RNA_POLYMERASE_II_HOLOENZYME (padj 0.0260741): -1.585
- NES GOCC_PROTEIN_LIPID_COMPLEX (padj 0.030494): 1.7122
- NES GOCC_CENTROSOME (padj 0.0306446): -1.299
- NES GOCC_PROTEASOME_CORE_COMPLEX (padj 0.0307775): 1.722
- NES GOCC_PROTON_TRANSPORTING_V_TYPE_ATPASE_COMPLEX (padj 0.0307775): 1.755
- NES GOCC_SNARE_COMPLEX (padj 0.0312218): 1.596
- NES GOCC_BLOC_COMPLEX (padj 0.0315137): 1.832
- NES GOCC_INTRACILIARY_TRANSPORT_PARTICLE_B (padj 0.0329395): 1.825
- NES GOCC_POLYSOMAL_RIBOSOME (padj 0.0334435): -1.667
- NES GOCC_AP_TYPE_MEMBRANE_COAT_ADAPTOR_COMPLEX (padj 0.0422332): 1.673
- NES GOCC_9PLUS0_NON_MOTILE_CILIUM (padj 0.0467153): 1.3799
- NES GOCC_PROTON_TRANSPORTING_ATP_SYNTHASE_COMPLEX (padj 0.0488031): 1.779
- NES GOCC_SEX_CHROMOSOME (padj 0.0490653): -1.646
- NES GOCC_U2_SNRNP (padj 0.0543003): -1.648
- NES GOCC_ENDOCYTIC_VESICLE (padj 0.0582082): 1.305
- NES GOCC_HIGH_DENSITY_LIPOPROTEIN_PARTICLE (padj 0.0591592): 1.639
- NES GOCC_REPLISOME (padj 0.0619841): -1.586
- NES GOCC_ANCHORED_COMPONENT_OF_MEMBRANE (padj 0.0629656): 1.328
- NES GOCC_INTRINSIC_COMPONENT_OF_SYNAPTIC_VESICLE_MEMBRANE (padj 0.0629656): 1.526
- NES GOCC_MULTIVESICULAR_BODY (padj 0.063611): 1.4828
- NES GOCC_NURD_COMPLEX (padj 0.0667331): -1.604
- NES GOCC_CYTOPLASMIC_MICROTUBULE (padj 0.0742121): 1.415
- NES GOCC_PHOTORECEPTOR_CONNECTING_CILIUM (padj 0.0825356): 1.523
- NES GOCC_REGION_OF_CYTOSOL (padj 0.0834337): -1.574
- NES GOCC_FILOPODIUM_MEMBRANE (padj 0.0837675): -1.564
